The supplement of paper PMC11451515

Columns and labels:
Settings in all cases: 48 h
P12-Ichikawa [1] = assay: cell viability relative to DMSO control; higher = less cytotoxic
Summary of the method: (§1)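 Viability values are per-plate percentages of DMSO wells, with background from cell-free wells. Library compounds in DMSO were pin-dosed, in an 11-point threefold series from 47 μM to 0.79 nM, onto NOMO1 or SEM (500 cells/well) or P12-Ichikawa (1000 cells/well) leukemia cells in 1536-well plates (5 μl). Those cells had been adapted for at least four passages in each medium, and CellTiter-Glo One luminescence was read after 48 h at 37°C.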

SEM cells [2] = assay: as above
Summary of the method: as §1

NOMO1 [3] = assay: as above
Summary of the method: as §1

P12-Ichikawa [4] = assay: AUC of viability dose-response curve (% viability x log10 dose units); higher = less sensitive
Summary of the method: (§2)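 Viability of medium-adapted leukemia cells was measured by CellTiter-Glo One luminescence after 48 h at 37°C with library compounds in DMSO. Doses were 11 threefold steps from 47 μM to 0.79 nM, in 1536-well plates at 500 or 1000 cells/well. Signals were normalised per plate to DMSO and cell-free wells and fitted with a four-parameter log-logistic model on log10 dose. Area under the curve was integrated by trapezoidal rule, with curves exceeding full viability scaled and failed quality-control curves removed.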

SEM cells [5] = assay: as above
Summary of the method: as §2

NOMO1 [6] = assay: as above
Summary of the method: as §2

COc1cc2c(NC3CCN(C(C)C)CC3)nc(C3CCCCC3)nc2cc1OCCCN1CCCC1
cell viability [%]
Settings | NOMO1 [3] | P12-Ichikawa [1] | SEM cells [2]
HPLM + 10% dialyzed FBS, 0.000781 µM | 120 | 107 | 111
HPLM + 10% dialyzed FBS, 0.00234 µM | 133 | 110 | 125
HPLM + 10% dialyzed FBS, 0.00702 µM | 123 | 115 | 109
HPLM + 10% dialyzed FBS, 0.0211 µM | 118 | 121 | 122
HPLM + 10% dialyzed FBS, 0.0632 µM | 142 | 121 | 122
HPLM + 10% dialyzed FBS, 0.19 µM | 128 | 121 | 125
HPLM + 10% dialyzed FBS, 0.569 µM | 118 | 120 | 130
HPLM + 10% dialyzed FBS, 1.71 µM | 130 | 123 | 81.9
HPLM + 10% dialyzed FBS, 5.12 µM | 111 | 119 | 108
HPLM + 10% dialyzed FBS, 15.4 µM | 102 | 105 | 61.7
HPLM + 10% dialyzed FBS, 46.1 µM | 9.5 | 4.7 | 6.83
RPMI 5 mM glucose + 10% FBS, 0.000781 µM | 107 | 112 | 109
RPMI 5 mM glucose + 10% FBS, 0.00234 µM | 117 | 127 | 113
RPMI 5 mM glucose + 10% FBS, 0.00702 µM | 114 | 113 | 122
RPMI 5 mM glucose + 10% FBS, 0.0211 µM | 129 | 127 | 116
RPMI 5 mM glucose + 10% FBS, 0.0632 µM | 117 | 121 | 112
RPMI 5 mM glucose + 10% FBS, 0.19 µM | 130 | 116 | 122
RPMI 5 mM glucose + 10% FBS, 0.569 µM | 134 | 120 | 109
RPMI 5 mM glucose + 10% FBS, 1.71 µM | 114 | 131 | 77.3
RPMI 5 mM glucose + 10% FBS, 5.12 µM | 118 | 112 | 113
RPMI 5 mM glucose + 10% FBS, 15.4 µM | 115 | 96.9 | 76.6
RPMI 5 mM glucose + 10% FBS, 46.1 µM | 18.2 | 3.81 | 10.2
RPMI 5 mM glucose + 10% dialyzed FBS, 0.000781 µM | – | 106 | 90.1
RPMI 5 mM glucose + 10% dialyzed FBS, 0.00234 µM | – | 117 | 114
RPMI 5 mM glucose + 10% dialyzed FBS, 0.00702 µM | – | 114 | 111
RPMI 5 mM glucose + 10% dialyzed FBS, 0.0211 µM | – | 121 | 119
RPMI 5 mM glucose + 10% dialyzed FBS, 0.0632 µM | – | 123 | 116
RPMI 5 mM glucose + 10% dialyzed FBS, 0.19 µM | – | 129 | 113
RPMI 5 mM glucose + 10% dialyzed FBS, 0.569 µM | – | 122 | 112
RPMI 5 mM glucose + 10% dialyzed FBS, 1.71 µM | – | 133 | 76.8
RPMI 5 mM glucose + 10% dialyzed FBS, 5.12 µM | – | 110 | 115
RPMI 5 mM glucose + 10% dialyzed FBS, 15.4 µM | – | 91.5 | 93.5
RPMI 5 mM glucose + 10% dialyzed FBS, 46.1 µM | – | 4.78 | 32.9

AUC of viability dose-response curve
Settings | NOMO1 [6] | P12-Ichikawa [4] | SEM cells [5]
HPLM + 10% dialyzed FBS | 444 | 449 | 419
RPMI 5 mM glucose + 10% FBS | 455 | 445 | 440
RPMI 5 mM glucose + 10% dialyzed FBS | 438 | 441 | 454

COc1ccc([C@@H]2CNC(=O)C2)cc1OC1CCCC1
cell viability [%]
Settings | NOMO1 [3] | P12-Ichikawa [1] | SEM cells [2]
HPLM + 10% dialyzed FBS, 0.000781 µM | 106 | 103 | 83.1
HPLM + 10% dialyzed FBS, 0.00234 µM | 108 | 107 | 90.7
HPLM + 10% dialyzed FBS, 0.00702 µM | 108 | 104 | 93.9
HPLM + 10% dialyzed FBS, 0.0211 µM | 111 | 110 | 102
HPLM + 10% dialyzed FBS, 0.0632 µM | 117 | 109 | 103
HPLM + 10% dialyzed FBS, 0.19 µM | 114 | 111 | 103
HPLM + 10% dialyzed FBS, 0.569 µM | 136 | 113 | 96.2
HPLM + 10% dialyzed FBS, 1.71 µM | 114 | 109 | 114
HPLM + 10% dialyzed FBS, 5.12 µM | 117 | 117 | 114
HPLM + 10% dialyzed FBS, 15.4 µM | 118 | 114 | 111
HPLM + 10% dialyzed FBS, 46.1 µM | 116 | 109 | 93.2
RPMI 5 mM glucose + 10% FBS, 0.000781 µM | 112 | 101 | 76.9
RPMI 5 mM glucose + 10% FBS, 0.00234 µM | 111 | 104 | 101
RPMI 5 mM glucose + 10% FBS, 0.00702 µM | 106 | 110 | 92.3
RPMI 5 mM glucose + 10% FBS, 0.0211 µM | 96.7 | 99.8 | 93.7
RPMI 5 mM glucose + 10% FBS, 0.0632 µM | 114 | 97.1 | 100
RPMI 5 mM glucose + 10% FBS, 0.19 µM | 107 | 113 | 98.6
RPMI 5 mM glucose + 10% FBS, 0.569 µM | 104 | 117 | 92
RPMI 5 mM glucose + 10% FBS, 1.71 µM | 112 | 105 | 95.5
RPMI 5 mM glucose + 10% FBS, 5.12 µM | 99.7 | 117 | 103
RPMI 5 mM glucose + 10% FBS, 15.4 µM | 105 | 118 | 95.6
RPMI 5 mM glucose + 10% FBS, 46.1 µM | 107 | 108 | 98
RPMI 5 mM glucose + 10% dialyzed FBS, 0.000781 µM | 92.6 | 99.1 | 97.1
RPMI 5 mM glucose + 10% dialyzed FBS, 0.00234 µM | 101 | 106 | 94.3
RPMI 5 mM glucose + 10% dialyzed FBS, 0.00702 µM | 119 | 113 | 97.9
RPMI 5 mM glucose + 10% dialyzed FBS, 0.0211 µM | 105 | 107 | 70.6
RPMI 5 mM glucose + 10% dialyzed FBS, 0.0632 µM | 114 | 118 | 97.4
RPMI 5 mM glucose + 10% dialyzed FBS, 0.19 µM | 115 | 110 | 103
RPMI 5 mM glucose + 10% dialyzed FBS, 0.569 µM | 105 | 114 | 104
RPMI 5 mM glucose + 10% dialyzed FBS, 1.71 µM | 115 | 103 | 106
RPMI 5 mM glucose + 10% dialyzed FBS, 5.12 µM | 112 | 113 | 99.6
RPMI 5 mM glucose + 10% dialyzed FBS, 15.4 µM | 105 | 111 | 97.6
RPMI 5 mM glucose + 10% dialyzed FBS, 46.1 µM | 119 | 118 | 90.9

AUC of viability dose-response curve
Settings | NOMO1 [6] | P12-Ichikawa [4] | SEM cells [5]
HPLM + 10% dialyzed FBS | 452 | 466 | 454
RPMI 5 mM glucose + 10% FBS | 467 | 456 | 458
RPMI 5 mM glucose + 10% dialyzed FBS | 468 | 458 | 459

Cn1cc(-c2ccncc2)c(-c2ccc(OCc3ccc4ccccc4n3)cc2)n1
cell viability [%]
Settings | NOMO1 [3] | P12-Ichikawa [1] | SEM cells [2]
HPLM + 10% dialyzed FBS, 0.000781 µM | – | 120 | 124
HPLM + 10% dialyzed FBS, 0.00234 µM | – | 121 | 127
HPLM + 10% dialyzed FBS, 0.00702 µM | – | 122 | 95
HPLM + 10% dialyzed FBS, 0.0211 µM | – | 121 | 134
HPLM + 10% dialyzed FBS, 0.0632 µM | – | 126 | 132
HPLM + 10% dialyzed FBS, 0.19 µM | – | 123 | 123
HPLM + 10% dialyzed FBS, 0.569 µM | – | 115 | 116
HPLM + 10% dialyzed FBS, 1.71 µM | – | 118 | 124
HPLM + 10% dialyzed FBS, 5.12 µM | – | 109 | 125
HPLM + 10% dialyzed FBS, 15.4 µM | – | 91.5 | 110
HPLM + 10% dialyzed FBS, 46.1 µM | – | 75.5 | 110
RPMI 5 mM glucose + 10% FBS, 0.000781 µM | – | 121 | 123
RPMI 5 mM glucose + 10% FBS, 0.00234 µM | – | 127 | 126
RPMI 5 mM glucose + 10% FBS, 0.00702 µM | – | 120 | 102
RPMI 5 mM glucose + 10% FBS, 0.0211 µM | – | 132 | 118
RPMI 5 mM glucose + 10% FBS, 0.0632 µM | – | 122 | 118
RPMI 5 mM glucose + 10% FBS, 0.19 µM | – | 121 | 125
RPMI 5 mM glucose + 10% FBS, 0.569 µM | – | 120 | 122
RPMI 5 mM glucose + 10% FBS, 1.71 µM | – | 120 | 124
RPMI 5 mM glucose + 10% FBS, 5.12 µM | – | 104 | 95.3
RPMI 5 mM glucose + 10% FBS, 15.4 µM | – | 65.8 | 81.1
RPMI 5 mM glucose + 10% FBS, 46.1 µM | – | 53.7 | 82.4
RPMI 5 mM glucose + 10% dialyzed FBS, 0.000781 µM | 102 | – | 94.6
RPMI 5 mM glucose + 10% dialyzed FBS, 0.00234 µM | 123 | – | 108
RPMI 5 mM glucose + 10% dialyzed FBS, 0.00702 µM | 133 | – | 89.7
RPMI 5 mM glucose + 10% dialyzed FBS, 0.0211 µM | 125 | – | 112
RPMI 5 mM glucose + 10% dialyzed FBS, 0.0632 µM | 114 | – | 98
RPMI 5 mM glucose + 10% dialyzed FBS, 0.19 µM | 117 | – | 102
RPMI 5 mM glucose + 10% dialyzed FBS, 0.569 µM | 131 | – | 112
RPMI 5 mM glucose + 10% dialyzed FBS, 1.71 µM | 123 | – | 110
RPMI 5 mM glucose + 10% dialyzed FBS, 5.12 µM | 109 | – | 103
RPMI 5 mM glucose + 10% dialyzed FBS, 15.4 µM | 111 | – | 96.8
RPMI 5 mM glucose + 10% dialyzed FBS, 46.1 µM | 98.4 | – | 64.3

AUC of viability dose-response curve
Settings | NOMO1 [6] | P12-Ichikawa [4] | SEM cells [5]
HPLM + 10% dialyzed FBS | 454 | 449 | 469
RPMI 5 mM glucose + 10% FBS | 451 | 433 | 445
RPMI 5 mM glucose + 10% dialyzed FBS | 463 | 440 | 465
